Laboratory results published in ChEMBL document CHEMBL4627386, “Bromo-spiroisoxazoline Alkaloids, Including an Isoserine Peptide, from the Caribbean Marine Sponge Aplysina lacunosa” (J Nat Prod, 2020).
The source made the active and inactive calls. The calls are words filed in the database; no cut-off is given here.

target: Chymotrypsinogen A (Bos taurus) (UniProt P00766); experiment: Inhibition of bovine alpha-Chymotrypsin up to 25 ug/ml using Ala-Ala-Phe-p-nitroanilide as substrate preincubated for 15 mins followed by substrate addition and measured after 1 hr by colorimetric method

inhibition, inactive:
COC1=C(Br)[C@H](O)[C@@]2(C=C1Br)CC(C(=O)NCCc1c[nH]cn1)=NO2, COC(=O)CNC(=O)C1=NO[C@]2(C=C(Br)C(OC)=C(Br)[C@@H]2O)C1, COc1c(Br)cc(C/C(=N\O)C(=O)NCCc2c[nH]cn2)c(O)c1Br, COC1=C(Br)[C@@H](O)[C@]2(C=C1Br)CC(C(=O)NCCCc1cnc(N)[nH]1)=NO2, COC1=C(Br)[C@H](O)[C@@]2(C=C1Br)CC(C(=O)NCCCOc1c(Br)cc(C/C(=N\O)C(=O)NCCc3c[nH]cn3)cc1Br)=NO2, COC(=O)C1=NO[C@]2(C=C(Br)C(OC)=C(Br)[C@@H]2O)C1, COC(=O)C(O)CNC(=O)C1=NO[C@]2(C=C(Br)C(OC)=C(Br)[C@@H]2O)C1 (some centres not stated)
